# Experimental data taken from patent US11241437B2, “Heterocyclic compounds, preparation methods and uses thereof” (InventisBio Co., Ltd., priority 2019, dated 2022).
# Tests used:
# Assay type in all cases: physicochemical
# [1] = Solubility of Form A and Form B of Compound 2 in bio-relevant media; conditions: for Solubility: 37° C.; for XRPD patterns of remaining solids: FaSSIF and water, at 24 hours; for solubility at 0.5 h / solubility at 2 h / solubility at 24 h: 37 °C, thermodynamic from solid
# Procedure: Solubility in Bio-relevant Media: Form A and Form B was added into SGF, FeSSIF, FaSSIF and water, respectively. The suspensions were kept shaking at 37° C. with 200 rpm for 24 hours. At 0.5 h, 2 h and 24 h, suspensions were filtered and drug concentrations of filtrates were analyzed by HPLC. pH of filtrates was measured at each time point. The remaining solids at 24 hours were characterized by XRPD.
# [2] = Manual grinding of Form A and Form B of Compound 2; conditions: ground manually for 5 min
# Procedure: About 10-20 mg of Compound 2 in Form A and Form B were ground manually for 5 min, respectively.
# [3] = Solubility of Form A of Compound 2 in organic solvents; conditions: for Solubility: organic solvent or mixture
# [4] = Solid state stability of Form B of Compound 2
# Procedure: Method 2. HPLC analysis was performed with an Agilent HPLC 1260 series instrument. A representative HPLC method used for purity, solubility and stability study for Compound 2 analysis.
# Solid State Stability of Form B: About 10 mg of Form B was open placed at 40° C./75% RH and 60° C. for 7 days and at 25° C./92.5% RH for 10 days, respectively. Prepare samples in duplicate (n=2) per condition. The solids were analyzed by XRPD and HPLC (only for 40° C./75% RH and 60° C.).
# [5] = Dynamic moisture sorption analysis (DVS) of Form B of Compound 2
# Procedure: Method 2. Used for studies with solid state of Compound 2. Moisture sorption/desorption data was collected on IGAsorp Dynamic Moisture Sorption Analyzer. The sample was placed into a tarred sample chamber and automatically weighed. The sample was dried at 50° C. until the humidity was less than 0.3% and cooled to 25° C. The instrument parameters were set as given below.
# [6] = Solubility of amorphous Compound 1 in solvents (anti-solvent precipitation screening); conditions: RT
# [7] = Solubility of Compound 1 solid forms in bio-relevant media and water; conditions: FaSSIF
# Procedure: Solubility Studies: Solubility of Form IV was tested in three bio-relevant media (Simulated Gastric Fluid (SGF), Fasted State Simulated Intestinal Fluid (FaSSIF), and Fed State Simulated Intestinal Fluid (FeSSIF)) and water. […] Form IV (˜10 mg) was weighed into 2 mL of four media to make suspensions respectively, and about 10 mg of the amorphous starting material was also added into 2 mL of FaSSIF. Then all suspensions were shaken at 37° C. with 200 rpm for up to 24 hours. At 0.5, 2 and 24 hours, about 0.7 mL of each suspension was filtered. The filtrate was analyzed by HPLC and pH meter, and the residual solids were also checked by XRPD at 24 hours.
# pKa of Compounds 1 and 2 = experiment: pKa of Compounds 1 and 2
# [8] = Competitive slurry (interconversion) of Form A, Form B and Form C of Compound 2; conditions: RT or 50° C.
# Procedure: Interconversion Studies: Competitive slurry of Form A, Form B and Form C was performed in acetone and acetone/water (1/4) at RT or 50° C., with details shown below.
# [9] = Interconversion studies of solid forms of Compound 1 (slurry)
# Procedure: Interconversion Studies: Equal amounts (˜7 mg) of Form I, II and III were mixed together and then suspended in 0.5 mL of different solvents at room temperature or 50° C., respectively. Residual solids were collected by filtration and characterized at appropriate time. Additionally, Form IV (˜12 mg) was slurried in 0.5 ml, water or MeOH/water (1/4) at RT or 50° C. for 3 days. Residual solids were collected by filtration and analyzed by XRPD.
# [10] = Polymorph characterization summary of Compound 1 forms (form stability)
# Excerpt: In the polymorph screening, five XRPD Patterns (FIG. 11) were generated, and four forms were identified including 2 anhydrates and 2 hydrates.
smiles,measurement,setting,value
"C=CC(=O)N1C[C@H](C)N(c2nc(=O)n(-c3c(C4CC4)ncnc3C3CC3)c3nc(-c4c(N)cccc4F)c(F)cc23)C[C@H]1C (single isomer, unassigned) [Form A]",Solubility,"[1]; FaSSIF (pH 6.5), 0.5 h",19 µg/mL
same,Solubility,"[1]; FaSSIF (pH 6.5), 2 h",29 µg/mL
same,Solubility,"[1]; FaSSIF (pH 6.5), 24 h",24 µg/mL
same,Solubility,"[1]; FeSSiF (pH 5.0), 0.5 h",41 µg/mL
same,Solubility,"[1]; FeSSiF (pH 5.0), 2 h",45 µg/mL
same,Solubility,"[1]; FeSSiF (pH 5.0), 24 h",42 µg/mL
same,Solubility,"[1]; SGF (pH 1.2), 0.5 h",67 µg/mL
same,Solubility,"[1]; SGF (pH 1.2), 2 h",72 µg/mL
same,Solubility,"[1]; SGF (pH 1.2), 24 h",170 µg/mL
same,XRPD patterns of remaining solids,"[1]; SGF, FeSSIF",unchanged
same,Solubility,"[1]; Water, 0.5 h",15 µg/mL
same,Solubility,"[1]; Water, 2 h",25 µg/mL
same,Solubility,"[1]; Water, 24 h",43 µg/mL
same,Crystal form after grinding,[2],unchanged
same,Solubility in other solvents,[3],practically insoluble
same,Solubility,"[3]; DCM, read-out: Solubility in DCM",> 92000 µg/mL
same,Solubility,"[3]; MeOH, butanone, THF, ACN, acetone, read-out: Solubility in MeOH, butanone, THF, ACN and acetone",20000 to 33000 µg/mL
"C=CC(=O)N1C[C@H](C)N(c2nc(=O)n(-c3c(C4CC4)ncnc3C3CC3)c3nc(-c4c(N)cccc4F)c(F)cc23)C[C@H]1C (single isomer, unassigned) [Form B]",solubility at 0.5 h,"[1]; FaSSIF, pH 6.5, fassif, FaSSIF (pH 6.5), 0.5 h",16 µg/mL
same,solubility at 2 h,"[1]; FaSSIF, pH 6.5, fassif, FaSSIF (pH 6.5), 2 h",51 µg/mL
same,solubility at 24 h,"[1]; FaSSIF, pH 6.5, fassif, FaSSIF (pH 6.5), 24 h",18 µg/mL
same,solubility at 0.5 h,"[1]; FeSSIF, pH 5, fessif, FeSSiF (pH 5.0), 0.5 h",44 µg/mL
same,solubility at 2 h,"[1]; FeSSIF, pH 5, fessif, FeSSiF (pH 5.0), 2 h",43 µg/mL
same,solubility at 24 h,"[1]; FeSSIF, pH 5, fessif, FeSSiF (pH 5.0), 24 h",37 µg/mL
same,Solubility,"[1]; SGF (pH 1.2), 24 h",56 µg/mL
same,solubility at 0.5 h,"[1]; SGF, pH 1.2, simulated gastric fluid, SGF (pH 1.2), 0.5 h",60 µg/mL
same,solubility at 2 h,"[1]; SGF, pH 1.2, simulated gastric fluid, SGF (pH 1.2), 2 h",58 µg/mL
same,XRPD patterns of remaining solids,"[1]; SGF, FeSSIF",unchanged
same,Solubility,"[1]; Water, 24 h",19 µg/mL
same,solubility at 0.5 h,"[1]; water, 0.5 h",21 µg/mL
same,solubility at 2 h,"[1]; water, 2 h",20 µg/mL
same,XRPD,"[4]; 25° C./92.5% RH, After 10 d",Unchanged
same,Purity-7 d,[4]; 40° C./75% RH,98.97 Area %
same,XRPD,"[4]; 40° C./75% RH, After 7 d",Unchanged
same,Purity decrease,[4]; 60° C. for 7 days,0.16%
same,Purity-7 d,[4]; 60° C.,98.82 Area %
same,XRPD,"[4]; 60° C., After 7 d",Unchanged
same,Initial Purity,"[4]; initial, before storage",98.98 Area %
same,Crystal form after grinding,[2],crystallinity of Form B became weak
same,Crystal form after DVS testing,[5],without changing of crystal form
same,Hygroscopicity (DVS),[5]; 25° C.,slightly hygroscopic
same,Water absorbed (DVS),"[5]; at 0-80% RH, 25° C.",~0.84%
C=CC(=O)N1C[C@H](C)N(c2nc(=O)n(-c3c(C4CC4)ncnc3C3CC3)c3nc(-c4c(N)cccc4F)c(Cl)cc23)C[C@H]1C [Amorphous material],"Solubility in MTBE, water and heptane",[6],low solubility
same,Solubility in most solvents,[6],high solubility
same,Solubility,"[7]; 37° C., 0.5 h",302 µg/mL
same,Solubility,"[7]; 37° C., 2 h",263 µg/mL
same,Solubility,"[7]; 37° C., 24 h",283 µg/mL
same,XRPD-24 h of residual solids,"[7]; 37° C., 24 h",unchanged
same,Solubility in FaSSIF,"[7]; time point not stated, listed as amorphous starting material",300 µg/mL
C=CC(=O)N1C[C@H](C)N(c2nc(=O)n(-c3c(C4CC4)ncnc3C3CC3)c3nc(-c4c(N)cccc4F)c(Cl)cc23)C[C@H]1C [Compound 1],pKa,pKa of Compounds 1 and 2,~3
C=CC(=O)N1C[C@H](C)N(c2nc(=O)n(-c3c(C4CC4)ncnc3C3CC3)c3nc(-c4c(N)cccc4F)c(F)cc23)C[C@H]1C [Compound 2],pKa,pKa of Compounds 1 and 2,~3
"C=CC(=O)N1C[C@H](C)N(c2nc(=O)n(-c3c(C4CC4)ncnc3C3CC3)c3nc(-c4c(N)cccc4F)c(F)cc23)C[C@H]1C [Form A, Form B and Form C]",Form after competitive slurry,"[8]; non-aqueous solvent (acetone), after 1 day",completely converted to Form B
same,Form after competitive slurry,"[8]; solvent-aqueous solution (acetone/water 1/4), after 7 days",showed tendency to convert to Form B
"C=CC(=O)N1C[C@H](C)N(c2nc(=O)n(-c3c(C4CC4)ncnc3C3CC3)c3nc(-c4c(N)cccc4F)c(Cl)cc23)C[C@H]1C [Form I, II and III]",XRPD of wet cake,"[9]; EA/MTBE (1/4), 50° C., 3 days",Form IV
same,XRPD of wet cake,"[9]; EA/MTBE (1/4), RT, 3 days",Form IV
same,XRPD of wet cake,"[9]; IPA, 50° C., 4 days",Form IV
same,XRPD of wet cake,"[9]; IPA, RT, 3 days",Pattern 1
same,XRPD of wet cake,"[9]; MeOH/Water (1/4), 50° C., 3 days",Form IV
same,XRPD of wet cake,"[9]; MeOH/Water (1/4), RT, 3 days",Form II
C=CC(=O)N1C[C@H](C)N(c2nc(=O)n(-c3c(C4CC4)ncnc3C3CC3)c3nc(-c4c(N)cccc4F)c(Cl)cc23)C[C@H]1C [Form III],Stability of the solid form,[10],not stable
C=CC(=O)N1C[C@H](C)N(c2nc(=O)n(-c3c(C4CC4)ncnc3C3CC3)c3nc(-c4c(N)cccc4F)c(Cl)cc23)C[C@H]1C [Form II],Stability of the solid form,[10],not stable
